# Values of other authors, collected in US20160002278A1, “Pharmaceutical Compositions for Rectal Administration” (CIPLA LIMITED, priority 2013, published 2016).
# Columns and labels:
# [1] = oral administration
# [2] = animal study, distributed to other vital organs such as lungs
structure (smiles),measurement,setting,value
CCc1c(Cl)c(O)c(Cl)c(O)c1C(=O)O[C@H]1[C@H](O)[C@H](OC)[C@H](OC/C2=C\C=C\C[C@H](O)/C(C)=C/[C@H](CC)[C@@H](O[C@@H]3OC(C)(C)[C@@H](OC(=O)C(C)C)[C@H](O)[C@@H]3O)/C(C)=C/C(C)=C/C[C@@H]([C@@H](C)O)OC2=O)O[C@@H]1C [Fidaxomicin],bioavailability,after oral administration,1%
same,absorption from the gastrointestinal tract,following oral (PO) administration,minimally absorbed
same,adverse effects,[1],"hives, difficulty in breathing, swelling of face, lips, tongue or throat"
same,organ findings after oral administration,[2],dark red discoloration of the lungs and lymph nodes
